# In patent publication US20130337463A1, “Cell-Based Models of Neurodegenerative Disease” (The Trustees of the University of Pennsylvania, priority 2010, published 2013):
# pIC50: −log10 of the molar value.
# Columns and labels:
# [1] = tested on: primary hippocampal neurons derived from WT C57BL6 mice; assay: p-α-syn aggregate formation in primary hippocampal neurons after pff addition; type: cell-based, mouse; conditions: for p-α-syn aggregate formation: pffs added to DIV5 neurons, 2 weeks
# Experimental: Primary neuronal cultures were prepared from E16-E18 C57BL/6 mouse brains (Charles River, Wilmington, Mass.) and α-syn −/− mice (Abeliovich et al., 2000, Neuron 25:239-252). All procedures were performed according to the NIH Guide for the Care and Use of Experimental Animals and were approved by the University of Pennsylvania Institutional Animal Care and Use Committee. Hippocampi were dissected, rinsed with Hank's Balanced Salt Solution (HBSS) and digested in HBSS containing papain (20 U/mL; Worthington Biochemical Corporation; Lakewood, N.J.) containing DNase (20 μg/mL; Worthington Biochemical Corporation; Lakewood, N.J.). Following rinses in plating media (10% fetal bovine serum, 1% penicillin/streptomycin, Glutamax, B27, Neurobasal media; Invitrogen, Carlsbad, Calif.) and HBSS, dissociated hippocampal neurons were plated in plating media onto poly-D-lysine (0.1 mg/mL, diluted in borate buffer, 0.1M, pH8.4) coated coverslips (Carolina Biological Supply, Burlington, N.C.) in 24 well trays at 20,000-40,000 cells/cm^2 or poly-D-lysine coated 60 mm dishes at 70-100,000 cells/cm2. The media was then changed to neuronal media (1% penicillin/streptomycin, Glutamax, B27, Neurobasal media). Most experiments were performed at 19 days in vitro (DIV).
# Recombinant full-length and truncated α-syn with and without a C-terminal myc-tag, were purified as previously described (Giasson et al., 2001, J. Biol. Chem. 276:2380-2386). α-syn pffs were generated by incubating purified α-syn (5 mg/mL in PBS) at 37° C. with constant agitation for 5 days, followed by aliquoting and storage at […]. The presence of amyloid was confirmed using Thioflavin T fluorometry. Fibrils of α-syn synthetic NAC peptide (amino acids 61-95) (Biotechnology Resource Center, Yale University) were generated as described (Giasson et al., 2001, J. Biol. Chem. 276:2380-2386). Pffs were diluted in PBS at 0.1 mg/mL, sonicated several times, and diluted in neuronal media. For a 24-well tray, 1 μg/mL of pffs were added, and 5 μg/mL of α-syn pffs were added to a […]. For WGA experiments, α-syn pffs were incubated with 1 μg/mL or 5 μg/mL WGA or preincubated for 1 hr (h) with 0.1 M GlcNAC followed by incubation with media containing α-syn pffs, GlcNAC, and WGA.
# Neurons were fixed with 4% paraformaldehyde in PBS containing 4% sucrose followed by permeabilization with 0.1% Triton X-100. To determine if the pathologic α-syn aggregates were detergent-insoluble, neurons were fixed with 4% paraformaldehyde, 4% sucrose and 1% Tx-100 (Luk et al., 2009, Proc. Natl. Acad. Sci. USA 106:20051-20056). Following fixation, neurons were blocked with 3% bovine serum albumin (BSA) in PBS, and incubated in primary antibodies (Table 6) followed by Alex fluor 594 or 488-conjugated secondary antibodies (anti-mouse, anti-rabbit, anti-IgG1 and anti-IgG2a; Invitrogen; Carlsbad, Calif.) diluted in blocking buffer. To assess cell viability, cells were incubated with ethidium homodimer (2 μM, Sigma Aldrich, St. Louis, Mo.) and Hoechst 33342 (1:1000, Invitrogen, Carlsbad, Calif.) and the percent overlap between both dyes was determined using Metamorph software (Molecular Devices, Sunnyvale, Calif.).
# [2] = tested on: T40/P301L-transfected cells; assay: Fibril-alone transduction without BioPORTER reagent (spontaneous PFF uptake); type: cell-based, human
# Experimental: For fibril-alone transduction without BioPORTER reagent, cells were placed on starvation medium right before the addition of fibrils. Fibrils were processed as described above and the same amount was used as in reagent-mediated transduction. Cells were trypsinized and replated either 4 hr or 30 hr after the initial addition of fibrils. For experiments using WGA, different doses of WGA were added to starvation medium together with PFFs. To inhibit endocytosis of WGA, 0.1 M GlcNAc was incubated with medium containing PFFs and 10 µg/ml WGA for 1 hr at 37° C. before being added to cells which were pre-incubated in 0.1M GlcNAc-containing medium for 1 hr. Cells were placed on WGA-free starvation medium 5-6 hr after fibril addition and fixed after overnight incubation to minimize possible toxicity resulted from WGA treatment.
# Immunocytochemistry was performed 48 hr after the initial addition of fibrils unless indicated otherwise. Cells were fixed in 4% paraformaldehyde (PFA) for 10 min and permeabilized with 0.1% Triton-X100 for 15 min, or fixed with 4% PFA containing 1% Triton-X100 for 15 min to remove soluble proteins. For visualization of microtubules, cells were fixed with 0.3% glutaraldehyde in PEM buffer (80 mM PIPES, pH6.8, 5 mM EGTA, 1 mM MgCl2) for 10 min, extracted with 1% Triton-X100 for 15 min before being quenched with 10 mg/ml sodium borohydride for 7 min followed by 0.1 M glycine for 20 min. […]
# For quantifying the percentage of cells developing tau aggregates with different combinations of endogenous tau and PFFs, 10-20 random-field images were taken at 40× magnification for each combination and at least two independent experiments were performed. For quantification of MT-bundling and PFF-induced tau aggregation in the absence of bioPORTER reagent under various conditions (i.e. different temperatures, with or without WGA/GlcNAc), 10 random-field images were taken at 20× magnification for each condition in each experiment and 3-4 independent experiments were performed. […]
# [3] = tested on: QBI-WT-Syn cells (QBI-293 cells stably expressing WT α-Syn); assay: α-Syn inclusion formation after Bioporter transduction of QBI-WT-Syn cells; type: cell-based, human; conditions: immunostaining 48 h after transduction
# Experimental: QBI cells were plated in 35-mm tissue culture plates and allowed to reach 80-90% confluence for transduction experiments. Cells were transferred to serum-free media 1 h before transduction. For each plate, 10 μL of cationic-liposomal protein transduction reagent (Bioporter; Sigma) was added to a 1.5-mL Microfuge tube and evaporated as per the manufacturer's guidelines. The resulting reagent dry-film was then directly resuspended with 80 μL of PBS containing α-Syn fibrils (100 μg/mL) fragmented by brief sonication with a hand-held probe. Protein:reagent complexes were allowed to form at room temperature for 10 min, after which the mixture was further diluted in OptiMEM (Invitrogen) and added to cells. Cells were then further incubated for 4 h, washed twice with Versene and 0.5% trypsin/EDTA to remove extracellular α-Syn fibrils, and transferred onto 6-well tissue culture plates or poly(d-lysine)-coated glass coverslips. […]
# Cells on coverslips were washed with PBS and fixed with 4% paraformaldehyde. […] Epifluorescence images were obtained by using a Nikon Eclipse 3000 inverted microscope equipped with a CoolSNAP HQ camera (Roper Scientific) and analyzed by using Metamorph 6.0 (Molecular Devices). […] Confocal laser scanning microscopic images were obtained by using a Zeiss LSM510 microscope and analyzed by using Volocity software (Improvision).
# AMPAR = conditions: published (Dev et al., 1996); cited from earlier work
compound,measurement,setting,value
"CC(=O)N[C@H]1C(O)O[C@H](CO)[C@@H](O)[C@@H]1O (stereo partly shown) [GlcNAc, N-acetyl glucosamine]",effect on WGA-enhanced aggregate formation,[1]; 0.1 M GlcNAc,reduced the effects of WGA on α-syn pff-induced aggregate formation
same,effect on WGA-enhanced PFF uptake and tau aggregation,[2]; 0.1 M GlcNAc added to the medium,significantly attenuated
α-syn-NAC: fibrils of α-syn synthetic NAC peptide (amino acids 61-95),p-α-syn aggregate formation,[1],resulted in endogenous mouse α-syn fibrillar LB-like aggregates
α-syn-1-89: human α-syn pffs composed of residues 1-89,p-α-syn aggregate formation,[1],robust accumulation of endogenous p-α-syn aggregates
wheat germ agglutinin [WGA],effect on extent of p-α-syn pathology,"[1]; co-incubation with α-syn-hWT pffs, 1 or 5 μg/mL WGA, 4 days",dose-dependently increased the extent of p-α-syn pathology
same,effect on prevalence of tau aggregate-bearing cells,"[2]; co-incubated with myc-K18/P301L PFFs, 0, 5, 10, 15 µg/ml WGA",increased the prevalence of tau aggregate-bearing cells
same,accumulation of insoluble tau in the absence of PFFs,[2]; up to 15 µg/ml of WGA,nor does it induce accumulation of insoluble tau in the absence of PFFs
α-syn-58-140: human α-syn pffs composed of residues 58-140,p-α-syn aggregate formation,[1],seeded formation of endogenous mouse α-syn aggregates
β-galactosidase: unrelated soluble protein,inclusion formation,[3],did not result in inclusion formation
NS(=O)(=O)c1cccc2c1c([N+](=O)[O-])cc1nc(O)c(O)nc12 [NBQX],pIC50,AMPAR,7.33
